From patent publication US20250145606A1 (Arcus Biosciences, Inc., priority 2023, published 2025)

Key:
Conditions in all cases: biochemical, HTRF KinEASE-TK
[1] = biological target: c-Kit (Homo sapiens (Human), UniProt P10721); experiment: Inhibition of c-Kit kinase activity (HTRF KinEASE-TK); assay type: biochemical
Procedure: (§1) Inhibition of c-Kit, PDGFRα, PDGFRβ, CSFIR and FLT3 Kinase Activity
(§2) Compounds were evaluated to determine the potency with which they inhibit the kinase activity of the following panel of tyrosine kinases: c-Kit (SignalChem, Product #: K06-11BG), PDGFRα (SignalChem, Product #: P12-18G), PDGFRβ (SignalChem, Product #: P13-11G), CSFIR (SignalChem, Product #: C74-11G) and FLT3 (Invitrogen, Product #: PR4666C). Activity was determined as a function of phosphorylated biotinylated TK peptide generated by the transfer of phosphate from ATP as measured by the use of the HTRF KinEASE-TK assay kit (Cisbio, Product #: 62TKOPEJ). Levels of phosphorylated biotinylated TK peptide (Part 61TKOBLC of KinEASE assay kit) are quantified by its capture by phosphor-TK-Antibody-Cryptate (Part of KinEASE assay kit) and XL665-labeled Streptavidin (Part 610SAXLG of KinEASE assay kit) followed by measurement of Time-Resolved Fluorescence Resonance Energy Transfer (TR-FRET) signal. On the day of the assay, compounds were solubilized in DMSO and dispensed into a 384-well white Opti-plate (PerkinElmer, catalog #6007290) to generate a 22 point 1:2 titration. Enzyme solution was prepared for each of the tyrosine kinases in 50 mM HEPES, pH 7.4, 5 mM MgCl2 for c-Kit or 10 mM MgCl2 for FLT3, CSFIR, PDGFRa and PDGFRβ, 2 mM MnCl2, 0.01% Brij-35 and 0.01% BSA. Working enzyme concentrations were prepared for c-Kit at 2 nM (2×), PDGFRa and PDGFRß at 10 nM (2×), CSFIR at 2 nM (2×) and FLT3 at 0.4 nM (2×). Five microliters of enzyme dilution of each tyrosine kinase were added to their respective 384-well white Opti-plate pre-dispensed with compound and allowed to incubate for 1 h at rt. Utilizing the same enzyme buffer recipe, 2x substrate mixes were prepared for each enzyme as follows: For c-Kit, 1.6 μM (2×) TK substrate and 16 μM (2×) ATP (Promega, catalog #V915). For PDGFRα, 3.2 μM TK substrate and 1 μM ATP. For PDGFRβ, 3.2 μM TK substrate and 40 μM ATP. For CSFIR, […] TK substrate and 20 μM ATP. For FLT3, 3.2 μM TK substrate and 100 μM ATP. Reactions were initiated by addition of 5 μL of the respective 2x substrate mix to each well of the plates containing the respective tyrosine kinase enzymes and were allowed to proceed for 120 minutes at rt, except for FLT3, the reaction time is 45 min. Following the reaction, 10 μL of detection mix consisting of 0.2 μM (2×) of Streptavidin-XL665 and 2 μM (2×) of TK-Antibody-Cryptate prepared in detection buffer (Part 62SDBRDF of KinEASE assay kit) was added and then allowed to incubate for 60 min. The TR-FRET signal was quantified by measuring the ratio of emission at 665 nm to 620 nm after excitation at 320 nm by reading on a PerkinElmer Envision multimode reader. Compound potencies (IC50 values) were determined using a standard 4-parameter non-linear regression fit.

[2] = biological target: PDGFRβ (Homo sapiens (Human), UniProt P09619); experiment: Inhibition of PDGFRβ kinase activity (HTRF KinEASE-TK)
PDGFRβ, sequence (P09619 33-1106): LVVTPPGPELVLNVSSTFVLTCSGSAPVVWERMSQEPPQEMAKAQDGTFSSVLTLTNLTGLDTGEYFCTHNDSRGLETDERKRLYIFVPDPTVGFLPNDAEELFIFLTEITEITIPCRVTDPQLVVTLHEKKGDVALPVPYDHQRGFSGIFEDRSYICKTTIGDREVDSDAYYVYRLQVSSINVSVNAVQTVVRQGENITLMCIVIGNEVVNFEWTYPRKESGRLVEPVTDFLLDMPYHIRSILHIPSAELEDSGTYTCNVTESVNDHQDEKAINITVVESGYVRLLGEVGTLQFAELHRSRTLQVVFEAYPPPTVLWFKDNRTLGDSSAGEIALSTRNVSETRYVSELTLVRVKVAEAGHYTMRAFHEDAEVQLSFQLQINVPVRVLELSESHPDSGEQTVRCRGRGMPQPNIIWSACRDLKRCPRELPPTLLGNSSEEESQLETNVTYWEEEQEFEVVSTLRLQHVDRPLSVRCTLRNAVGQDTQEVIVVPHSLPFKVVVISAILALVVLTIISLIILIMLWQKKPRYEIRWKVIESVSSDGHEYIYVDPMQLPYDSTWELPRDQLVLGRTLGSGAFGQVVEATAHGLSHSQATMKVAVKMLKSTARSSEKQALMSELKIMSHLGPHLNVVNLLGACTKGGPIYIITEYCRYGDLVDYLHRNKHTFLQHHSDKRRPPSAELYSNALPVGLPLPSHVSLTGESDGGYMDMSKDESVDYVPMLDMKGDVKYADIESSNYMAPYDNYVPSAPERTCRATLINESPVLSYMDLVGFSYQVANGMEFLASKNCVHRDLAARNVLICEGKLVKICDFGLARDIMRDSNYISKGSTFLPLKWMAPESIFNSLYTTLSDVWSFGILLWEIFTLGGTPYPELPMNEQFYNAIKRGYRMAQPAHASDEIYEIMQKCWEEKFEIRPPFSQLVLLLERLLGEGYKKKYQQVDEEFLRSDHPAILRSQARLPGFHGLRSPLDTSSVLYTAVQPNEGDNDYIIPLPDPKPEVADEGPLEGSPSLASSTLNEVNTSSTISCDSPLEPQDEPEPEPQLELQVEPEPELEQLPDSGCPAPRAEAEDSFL
Procedure: as §1, §2

[3] = biological target: PDGFRα (Homo sapiens (Human), UniProt P16234); experiment: Inhibition of PDGFRα kinase activity (HTRF KinEASE-TK)
PDGFRα, sequence (P16234 24-1089): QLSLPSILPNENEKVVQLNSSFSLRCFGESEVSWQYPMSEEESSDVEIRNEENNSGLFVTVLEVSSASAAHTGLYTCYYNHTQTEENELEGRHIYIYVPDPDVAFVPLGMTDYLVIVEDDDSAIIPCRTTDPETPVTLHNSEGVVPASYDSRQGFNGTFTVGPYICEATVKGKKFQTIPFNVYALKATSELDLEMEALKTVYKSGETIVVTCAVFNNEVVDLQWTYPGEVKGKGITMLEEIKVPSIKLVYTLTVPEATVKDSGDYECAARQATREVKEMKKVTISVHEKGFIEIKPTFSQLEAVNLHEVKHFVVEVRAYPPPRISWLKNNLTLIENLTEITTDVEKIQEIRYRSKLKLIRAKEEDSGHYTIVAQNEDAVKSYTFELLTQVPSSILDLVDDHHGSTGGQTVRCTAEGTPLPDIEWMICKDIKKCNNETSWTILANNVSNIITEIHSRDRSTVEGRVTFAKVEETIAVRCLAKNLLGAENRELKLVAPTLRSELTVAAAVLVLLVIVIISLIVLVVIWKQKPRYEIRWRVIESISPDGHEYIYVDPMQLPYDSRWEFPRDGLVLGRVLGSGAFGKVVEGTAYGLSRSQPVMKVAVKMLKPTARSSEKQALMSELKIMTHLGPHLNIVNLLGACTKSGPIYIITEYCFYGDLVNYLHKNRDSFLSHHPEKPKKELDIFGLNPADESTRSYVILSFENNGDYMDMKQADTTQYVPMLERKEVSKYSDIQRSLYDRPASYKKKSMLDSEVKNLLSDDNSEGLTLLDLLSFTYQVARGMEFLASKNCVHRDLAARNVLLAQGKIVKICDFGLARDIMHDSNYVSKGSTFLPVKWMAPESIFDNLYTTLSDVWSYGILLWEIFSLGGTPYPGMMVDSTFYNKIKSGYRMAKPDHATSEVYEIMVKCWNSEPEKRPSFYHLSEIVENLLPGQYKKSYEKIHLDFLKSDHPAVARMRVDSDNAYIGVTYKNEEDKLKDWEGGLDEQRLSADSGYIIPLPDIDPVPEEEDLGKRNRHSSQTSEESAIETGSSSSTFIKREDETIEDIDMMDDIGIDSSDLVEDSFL
Procedure: as §1, §2

[4] = biological target: CSF1R (Homo sapiens (Human), UniProt P07333); experiment: Inhibition of CSF1R kinase activity (HTRF KinEASE-TK)
CSF1R, sequence (P07333 20-972): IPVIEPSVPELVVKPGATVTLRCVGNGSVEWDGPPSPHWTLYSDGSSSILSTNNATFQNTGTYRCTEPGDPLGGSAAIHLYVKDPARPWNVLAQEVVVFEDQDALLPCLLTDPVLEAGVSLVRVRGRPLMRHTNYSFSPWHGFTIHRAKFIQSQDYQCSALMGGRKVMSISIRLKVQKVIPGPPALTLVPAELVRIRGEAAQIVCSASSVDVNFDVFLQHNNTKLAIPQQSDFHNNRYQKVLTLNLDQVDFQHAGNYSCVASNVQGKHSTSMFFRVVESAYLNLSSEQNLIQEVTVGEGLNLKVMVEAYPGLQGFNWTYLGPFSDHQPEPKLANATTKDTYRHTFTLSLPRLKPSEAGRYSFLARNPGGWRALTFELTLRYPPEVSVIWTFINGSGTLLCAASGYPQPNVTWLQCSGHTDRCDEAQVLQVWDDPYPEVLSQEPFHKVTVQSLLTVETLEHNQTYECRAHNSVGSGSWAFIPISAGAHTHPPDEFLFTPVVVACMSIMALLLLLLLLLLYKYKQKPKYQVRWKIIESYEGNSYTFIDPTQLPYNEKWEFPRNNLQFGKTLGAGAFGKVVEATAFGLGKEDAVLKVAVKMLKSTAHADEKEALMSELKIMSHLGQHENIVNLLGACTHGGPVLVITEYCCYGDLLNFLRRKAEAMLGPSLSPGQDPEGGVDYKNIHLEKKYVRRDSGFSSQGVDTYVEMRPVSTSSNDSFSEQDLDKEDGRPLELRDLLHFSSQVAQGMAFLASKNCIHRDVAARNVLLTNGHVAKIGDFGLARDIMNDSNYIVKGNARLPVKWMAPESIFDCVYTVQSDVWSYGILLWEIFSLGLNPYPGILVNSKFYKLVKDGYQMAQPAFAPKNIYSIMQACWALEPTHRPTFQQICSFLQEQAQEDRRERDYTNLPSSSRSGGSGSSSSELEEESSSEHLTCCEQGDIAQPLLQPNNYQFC
Procedure: as §1, §2

c-Kit, sequence (P10721 26-976): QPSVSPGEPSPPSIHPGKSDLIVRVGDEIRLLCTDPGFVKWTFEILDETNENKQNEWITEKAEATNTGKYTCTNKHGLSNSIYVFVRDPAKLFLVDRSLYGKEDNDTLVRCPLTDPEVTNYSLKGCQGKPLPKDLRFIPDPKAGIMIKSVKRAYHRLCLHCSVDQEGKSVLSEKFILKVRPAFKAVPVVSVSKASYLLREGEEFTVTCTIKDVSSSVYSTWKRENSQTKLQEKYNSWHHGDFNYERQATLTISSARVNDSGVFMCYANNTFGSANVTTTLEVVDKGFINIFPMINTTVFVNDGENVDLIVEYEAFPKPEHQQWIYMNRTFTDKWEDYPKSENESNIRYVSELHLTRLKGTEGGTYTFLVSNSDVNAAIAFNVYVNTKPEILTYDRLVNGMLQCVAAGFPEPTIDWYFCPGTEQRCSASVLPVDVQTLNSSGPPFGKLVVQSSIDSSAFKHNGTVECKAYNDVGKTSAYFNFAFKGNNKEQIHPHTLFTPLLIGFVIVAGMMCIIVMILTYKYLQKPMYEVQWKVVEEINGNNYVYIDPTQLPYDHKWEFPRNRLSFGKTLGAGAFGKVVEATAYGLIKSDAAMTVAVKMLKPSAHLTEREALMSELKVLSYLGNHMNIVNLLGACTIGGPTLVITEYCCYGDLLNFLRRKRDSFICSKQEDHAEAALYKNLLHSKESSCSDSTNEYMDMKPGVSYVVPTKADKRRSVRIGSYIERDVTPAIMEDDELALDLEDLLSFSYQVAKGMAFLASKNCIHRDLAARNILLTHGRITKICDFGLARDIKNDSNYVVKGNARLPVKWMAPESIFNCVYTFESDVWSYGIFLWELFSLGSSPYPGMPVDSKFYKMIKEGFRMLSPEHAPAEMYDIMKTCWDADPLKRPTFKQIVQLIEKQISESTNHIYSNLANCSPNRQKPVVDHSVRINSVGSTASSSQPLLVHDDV

| Structure (SMILES) | IC50 [1] [nM] | IC50 [2] [nM] | IC50 [3] [nM] | IC50 [4] [nM] |
| --- | --- | --- | --- | --- |
| Cc1ncc(C(=O)Nc2cc(C(=O)Nc3cnc(C4CC4)nc3)c(F)cc2C)s1 [Example 42, N-[5-[(2-cyclopropylpyrimidin-5-yl)carbamoyl]-4-fluoro-2-methylphenyl]-2-methyl-1,3-thiazole-5-carboxamide] | < 100 | > 1000 | > 1000 | > 1000 |
| Cc1ncc(C(=O)Nc2cc(C(=O)NCCCN3CCOCC3)c(F)cc2C)s1 [Example 57, N-[4-Fluoro-2-methyl-5-(3-morpholin-4-ylpropylcarbamoyl)phenyl]-2-methyl-1,3-thiazole-5-carboxamide] | 100 to 1000 | > 1000 | > 1000 | > 1000 |
| Cc1cc(F)c(C(=O)Nc2ccc(OC3CC3)cn2)cc1NC(=O)c1cnc(C(F)F)s1 [Example 59, N-[5-[(5-Cyclopropyloxypyridin-2-yl)carbamoyl]-4-fluoro-2-methylphenyl]-2-(difluoromethyl)-1,3-thiazole-5-carboxamide] | < 100 | > 1000 | > 1000 | > 1000 |
| Cc1ncc(C(=O)Nc2cc(C(=O)NCC3(F)CCC3)c(F)cc2C)s1 [Example 68, N-[4-Fluoro-5-[(1-fluorocyclobutyl)methylcarbamoyl]-2-methylphenyl]-2-methyl-1,3-thiazole-5-carboxamide] | 100 to 1000 | > 1000 | > 1000 | > 1000 |
| Cc1ncc(C(=O)Nc2cc(C(=O)NCc3ccn(C(C)C)n3)c(F)cc2C)s1 [Example 79, N-[4-fluoro-2-methyl-5-[(1-propan-2-ylpyrazol-3-yl)methylcarbamoyl]phenyl]-2-methyl-1,3-thiazole-5-carboxamide] | < 100 | > 1000 | > 1000 | > 1000 |
| Cc1cc(F)c(C(=O)Nc2ccc(OC3CC3)cn2)cc1NC(=O)c1cnc(NC(=O)OC2CCC2)s1 [Example 106] | < 100 | 100 to 1000 | > 1000 | > 1000 |
| Cc1cc(F)c(C(=O)Nc2ccc(OC3CC3)cn2)cc1NC(=O)c1cnc(NC(=O)[C@@H]2CCOC2)s1 [Example 107, N-[5-[(5-cyclopropyloxypyridin-2-yl)carbamoyl]-4-fluoro-2-methylphenyl]-2-[[(3R)-oxolane-3-carbonyl]amino]-1,3-thiazole-5-carboxamide] | < 100 | 100 to 1000 | > 1000 | > 1000 |
| Cc1cc(F)c(C(=O)Nc2ccc(OC3CC3)cn2)cc1NC(=O)c1cnc(NC(=O)[C@H]2CCOC2)s1 [Example 108, N-[5-[(5-cyclopropyloxypyridin-2-yl)carbamoyl]-4-fluoro-2-methylphenyl]-2-[[(3S)-oxolane-3-carbonyl]amino]-1,3-thiazole-5-carboxamide] | < 100 | > 1000 | > 1000 | > 1000 |

The remaining lines, values ahead:

| IC50 [1] [nM] | IC50 [2] [nM] | IC50 [3] [nM] | IC50 [4] [nM] | Structure (SMILES) |
| --- | --- | --- | --- | --- |
| < 100 | > 1000 | > 1000 | > 1000 | Cc1ncc(C(=O)Nc2cc(C(=O)Nc3ccc(C(F)F)cn3)c(F)cc2C)s1 [Example 16, N-[5-[[5-(Difluoromethyl)pyridin-2-yl]carbamoyl]-4-fluoro-2-methylphenyl]-2-methyl-1,3-thiazole-5-carboxamide] |
| < 100 | > 1000 | > 1000 | > 1000 | Cc1ncc(C(=O)Nc2cc(C(=O)Nc3ccc(C(F)(F)F)nc3)c(F)cc2C)s1 [Example 26, N-[4-Fluoro-2-methyl-5-[[6-(trifluoromethyl)pyridin-3-yl]carbamoyl]phenyl]-2-methyl-1,3-thiazole-5-carboxamide] |
| < 100 | > 1000 | > 1000 | > 1000 | Cc1ncc(C(=O)Nc2cc(C(=O)Nc3ccc(C4CC4)nn3)c(F)cc2C)s1 [Example 35, N-[5-[(6-cyclopropylpyridazin-3-yl)carbamoyl]-4-fluoro-2-methylphenyl]-2-methyl-1,3-thiazole-5-carboxamide] |
| 100 to 1000 | > 1000 | > 1000 | > 1000 | COCc1ccc(NC(=O)c2cc(NC(=O)c3cnc(C)s3)c(C)cc2F)nc1 [Example 37, N-[4-fluoro-5-[[5-(methoxymethyl)pyridin-2-yl]carbamoyl]-2-methylphenyl]-2-methyl-1,3-thiazole-5-carboxamide] |
| < 100 | > 1000 | > 1000 | > 1000 | Cc1ncc(C(=O)Nc2cc(C(=O)Nc3ccc(OCC(F)(F)F)cn3)c(F)cc2C)s1 [Example 41, N-[4-fluoro-2-methyl-5-[[5-(2,2,2-trifluoroethoxy)pyridin-2-yl]carbamoyl]phenyl]-2-methyl-1,3-thiazole-5-carboxamide] |
| < 100 | > 1000 | > 1000 | > 1000 | Cc1ncc(C(=O)Nc2cc(C(=O)Nc3cnc(C4CC4)cn3)c(F)cc2C)s1 [Example 43, N-[5-[(5-cyclopropylpyrazin-2-yl)carbamoyl]-4-fluoro-2-methylphenyl]-2-methyl-1,3-thiazole-5-carboxamide] |
| 100 to 1000 | > 1000 | > 1000 | > 1000 | COCc1ccc(NC(=O)c2cc(NC(=O)c3cnc(C)s3)c(Cl)cc2F)nc1 [Example 47, N-[2-chloro-4-fluoro-5-[[5-(methoxymethyl)pyridin-2-yl]carbamoyl]phenyl]-2-methyl-1,3-thiazole-5-carboxamide] |
| 100 to 1000 | > 1000 | > 1000 | > 1000 | Cc1cc(F)c(C(=O)Nc2ccc(OC3CC3)cn2)cc1NC(=O)c1cnc(C2CC2)s1 [Example 60, 2-Cyclopropyl-N-[5-[(5-cyclopropyloxypyridin-2-yl)carbamoyl]-4-fluoro-2-methylphenyl]-1,3-thiazole-5-carboxamide] |
| < 100 | > 1000 | > 1000 | > 1000 | Cc1ncc(C(=O)Nc2cc(C(=O)Nc3ccc(OC4CC4)c(C)n3)c(F)cc2C)s1 [Example 62, N-[5-[(5-Cyclopropyloxy-6-methylpyridin-2-yl)carbamoyl]-4-fluoro-2-methylphenyl]-2-methyl-1,3-thiazole-5-carboxamide] |
| < 100 | > 1000 | > 1000 | > 1000 | Cc1ncc(C(=O)Nc2cc(C(=O)Nc3ccc(OCC4CC4)cn3)c(F)cc2C)s1 [Example 65, N-[5-[[5-(cyclopropylmethoxy)pyridin-2-yl]carbamoyl]-4-fluoro-2-methylphenyl]-2-methyl-1,3-thiazole-5-carboxamide] |
| 100 to 1000 | > 1000 | > 1000 | > 1000 | Cc1ncc(C(=O)Nc2cc(C(=O)Nc3ccn(C(F)F)n3)c(F)cc2C)s1 [Example 69, N-[5-[[1-(difluoromethyl)pyrazol-3-yl]carbamoyl]-4-fluoro-2-methylphenyl]-2-methyl-1,3-thiazole-5-carboxamide] |
| 100 to 1000 | > 1000 | > 1000 | > 1000 | Cc1cc(F)c(C(=O)Nc2ccc(OC3CC3)cn2)cc1NC(=O)c1cnc(NC(=O)C(C)(C)O)s1 [Example 109, N-[5-[(5-cyclopropyloxypyridin-2-yl)carbamoyl]-4-fluoro-2-methylphenyl]-2-[(2-hydroxy-2-methylpropanoyl)amino]-1,3-thiazole-5-carboxamide] |
